Columns and labels:
rat CB2R = experiment: Live cell fluorescent Ca2+ imaging (Fluo-4AM) in AtT-20(rCB2R) cells; type: cell-based; conditions: 20 μM, live AtT-20(rCB2R) cells; HU-308 added after (S)-3/(R)-3
Method: Live AtT-20 cells overexpressing rat CB2R [AtT-20(rCB2R)] were treated with Fluo-4AM Ca^2+ dye and imaged by confocal microscopy (Figure 7). […] Ionomycin was added at the end of the experiment to saturate Ca^2+ levels.
Culture media (D10): Contains high glucose DMEM (450 mL, Gibco, #11965-092), FBS (50 mL, HyClone’s USDA tested, #SH30910), antibiotic Penicillin-strep (2.5 mL, Gibco, #15070).
Sterile filtered and aliquoted.
Culture media (D10) with hygromycin-B selection: Contains high glucose DMEM (450 mL, Gibco, #11965-092), FBS (50 mL, HyClone’s USDA tested, #SH30910), antibiotic Penicillin-strep (2.5 mL, Gibco, #15070). Sterile filtered and aliquoted. Selection maintained with Hygromycin-B (200 µg/mL, Thermo Fisher Scientific, #10687010).
Imaging buffer: Contains (in mM): 115 NaCl, 1.2 CaCl2, 1.2 MgCl2, 1.2 K2HPO4, 20 HEPES, 20 D-glucose. Adjusted to pH 7.4 with NaOH. Sterile filtered and aliquoted.
AtT-20 wild type (WT) and overexpressing rat CB2R cells (AtT-20(rCB2R)) were cultured in D10 culture media. […]
Fluorescence images were acquired with an Olympus Fluoview 1200 laser scanning confocal microscope using a 63× objective. […] For a direct comparison of the AtT-20(rCB2R) and wild type cells, one well of each genotype was labelled in parallel, and the identical settings on the confocal microscope were used between wells to accurately compare the dye fluorescence intensities.

hCB2R [1] = biological target: T1, hCB2R (Homo sapiens, UniProt P34972); experiment: cAMP HTRF assay in hCB2R-CHO cells; type: cell-based; set-up: expressed in transfected cells; conditions: for EC50: hCB2R-CHO cells, forskolin stimulated, mean N = 3
From the text: One of the canonical signaling pathways of CB2R involves association with Gαi/o proteins, which elicit reversible inhibition of adenylyl cyclase resulting in a decrease of cellular cAMP levels and suppression of protein kinase A activity.[67] Consequently, we have investigated the change in cAMP levels upon probe addition using homogeneous time-resolved fluorescence (HTRF) cAMP assay (Table 3).
Homogeneous Time-Resolved Fluorescence (HTRF) cAMP assay
The homogeneous time-resolved fluorescence (HTRF) cAMP assay was conducted according to the manufacturer’s protocol for the cAMP-Gs Dynamic kit (Cisbio). Briefly, the CHO cell line stably overexpressing CB2R was maintained in Ham’s F12 supplemented with 10% FBS, penicillin (100 U/mL, Gibco-ThermoFisher), streptomycin (100 μg/mL, Gibco-ThermoFisher) and G418 (400 μg/mL, ThermoFisher). For CB2R compounds test, the cells were harvested with Cell Dissociation Buffer, resuspended in F-12 K at 0.4×10^6 cells/mL, and dispensed into 384-well low volume plates at 2000 cells/5 μL per well. The cells were stimulated with compounds diluted in Stimulation Buffer (2.5 μL/well) for 15 min at room temperature, followed by the addition of forsklin (2.5 μL 25 μM). After 15 mins incubation, reactions were stopped by 5 μL/well cAMP-d2 conjugate working solution followed by 5 μL/well of anti-cAMP cryptate working solution. After incubation for 1 h at room temperature, the plates were read in a PerkinElmer Envision reader for Time-Resolved Förster Resonance Energy Transfer (TR-FRET) at 620 nm and 665 nm.
β–arrestin recruitment assay
SNAP-tagged human CB2R HEK293-TR cells were maintained in a humidified environment at 37 °C and 5% CO2 in Dulbecco’s modified Eagle’s medium (DMEM) with 10% fetal bovine serum (FBS) containing blasticidin (5 µg/mL; Invitrogen) and (Zeocin; 20 µg/mL; Invitrogen). For receptor-inducible expression, cells were seeded into t175 cm2 flasks, grown to 70% confluence and DMEM containing 1 µg/ml tetracycline added.
HEK293TR-CB2R-nLuc cells expressing a fluorescently labelled β-arrestin protein were maintained in a humidified environment at 37 °C and 5% CO2 in Dulbecco’s modified Eagle’s medium (DMEM) with 10% fetal bovine serum (FBS) containing blasticidin (5 µg/mL; Invitrogen), Zeocin (20 µg/mL; Invitrogen) and G418 (0.2 mg/mL; Invitrogen) and used to assess compound stimulated β-arrestin recruitment to the human CB2R. Cultured cells were harvested upon reaching 70% confluency and plated at a seeding density of 50,000 cells per well. The cells were grown for 48 h until they reached confluency and then stimulated with 1 μg/mL tetracycline for a further 48 h to induce CB2R expression. Cell culture media was then aspirated from the wells and the cells were washed with assay buffer, 100 μL/well HBSS containing 0.5% BSA and 5 mM

hCB2R [2] = biological target: T1, hCB2R; experiment: BRET Gi-CASE G protein recruitment membrane assay; type: biochemical; set-up: expressed in transfected cells; host or cells: HEK293-TR cells, tetracycline-induced; membrane preparations; conditions: for EC50: hCB2R-HEK293 T-REx membranes, mean N = 3–4, read-out: pEC50 (Gi-CASE G protein recruitment) (converted)
hCB2R [3] = biological target: T1, hCB2R; experiment: TR-FRET kinetic binding assay at CB2R; set-up: expressed in transfected cells; host or cells: HEK293-TR cells, tetracycline-induced; membrane preparations; conditions: for koff / kon / τ (receptor residence time) / Kd: hCB2R-HEK293 membranes, mean N = 3; for Kd: kinetic Kd
hCB2R [4] = biological target: T1, hCB2R; type: cell-based; set-up: expressed in transfected cells; host or cells: HEK293TR cells, tetracycline-induced, live cells; conditions: HEK293TR-CB2R-nLuc cells, representative of N = 3
Method: HEPES. Following the wash, assay buffer containing 10 μM furimazine, 90 μL/well was added
to the wells. The plate was then incubated at 37 °C for 15 minutes to allow the nanoLuc substrate
furimazine to enter the cells. Three BRET cycles of 1-minute intervals were performed to assess
basal BRET levels, following which 10 μL of each compound, diluted in assay buffer was added
to the assay plate, which was read at 1-minute intervals for 30 minutes.
Buffer containing 10% DMSO (1% final) served as the vehicle control and
The assay buffer used to profile compounds in the CB 2R Gi-CASE system consisted of HBSS
containing 0.02% pluronic F127, 0.5% BSA and 5 mM HEPES. The reference compounds HU -
polypropylene plate. 0.5 µL of the reference and test compound serial dilutions was then added to
a white 384 well OptiplateTM (PerkinElmer) containing 39.5 μL of assay buff er. Finally, the CB 2R
membranes containing the G i-CASE biosensor were thawed and added into assay buffer containing
50 µM furimazine. Membranes (10 μL) were added to the assay plate at a final concentration of 5
µg/well. The total assay volume was 50 µL.

hCB2R [5] = biological target: T1, hCB2R; experiment: TR-FRET saturation binding assay at CB2R; set-up: expressed in transfected cells; host or cells: HEK293-TR cells, tetracycline-induced; membrane preparations; conditions: room temperature; for Kd: TR-FRET, HEK293 membranes of SNAP-Lumi4-Tb labeled hCB2R
[6] = system: CB2R-mediated phosphorylation of endogenous ERK1/2; experiment: AlphaScreen SureFire phospho-ERK assay in CB2R inducible HCC1954 cells; type: cell-based; conditions: 1 μM, 30 min, versus vehicle
Method: Activation of CB2R is associated with downstream stimulation of mitogen-activated protein kinases, such as ERK1/2, mediated via either Gβγ or β-arrestins.[70],[71] We have tested representative high-affinity fluorescent probe (R)-2 for CB2R-mediated phosphorylation of endogenous ERK1/2 in a CB2R inducible breast cancer HCC1954 cell line using the AlphaScreen SureFire phospho-ERK assay (Figure 6). […] (1 μM), or (R)-2 (1 μM) for 30 min. Following cell lysis, lysates were incubated with a mixture containing donor and acceptor beads for 2 h at room temperature and the luminescence emission signal was measured.
For ERK phosphorylation assay an inducible HCC1954 breast cancer cell line expressing CB2R […]
ERK1/2 phosphorylation was measured using AlphaScreen® SureFire® p‐ERK 1/2 assay kit according to manufacturer instructions (PerkinElmer) . Briefly, HCC1954 cells were seeded at a density of 100 000 cells/well in poly -D-lysine coated 96-well plates and incubated in absence or presence of 1 µg/ mL doxycycline for 24 h. On the next day prior to assay, cells were serum-starved for 2 h at 37°C. […] The plate was incubated for 2 h and ERK1/2 phosphorylation was measured on CLARIOstar® Plus Multimode Plate Reader (BMG Labtech, Germany), using a ratio of 620/570 nm. […]
Statistical significance was determined by one-way ANOVA followed by Tukey's post hoc test.

[7] = normalized to agonist CP-55,940 response (100%) and basal level (0%)

T1 sequence (P34972 whole entry): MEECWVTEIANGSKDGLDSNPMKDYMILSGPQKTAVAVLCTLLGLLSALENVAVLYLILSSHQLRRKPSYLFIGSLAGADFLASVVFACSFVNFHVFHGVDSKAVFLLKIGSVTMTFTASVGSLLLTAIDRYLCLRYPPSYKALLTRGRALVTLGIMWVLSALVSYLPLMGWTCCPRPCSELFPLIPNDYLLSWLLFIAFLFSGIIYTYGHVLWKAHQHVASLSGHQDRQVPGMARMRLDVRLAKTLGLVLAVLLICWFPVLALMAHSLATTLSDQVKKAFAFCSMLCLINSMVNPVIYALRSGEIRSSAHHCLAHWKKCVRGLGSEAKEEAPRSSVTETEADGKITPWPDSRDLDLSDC

How did the “intracellular Ca2+ (Fluo-4AM fluorescence)” value (rat CB2R) turn out when `C#CCCC(=O)NCC1=CC(c2c(OC)cc(C(C)(C)C(CCCCCN=[N+]=[N-])c3ccccc3)cc2OC)C2CC1C2(C)C` [(S)-3/(R)-3] was run?
The value was “did not elicit increase in Fluo-4AM fluorescence”.

`C#CCCC(=O)NCC1=CC(c2c(OC)cc(C(C)(C)C(CCCCCN=[N+]=[N-])c3ccccc3)cc2OC)C2CC1C2(C)C` [(S)-3] was tested. Which EC50 (hCB2R [1]) did it give?
The EC50 was 40.7 nM.

And the “Emax (cAMP)” value (hCB2R [1]; [7])?
The value was “–49%”.

What about the EC50 (hCB2R [2]) of the same compound?
The EC50 was 30.9 nM.

What about the koff (hCB2R [3]; 37 °C) of the same compound?
Its koff is 4.96 10^–2 min^–1.

And the kon (hCB2R [3]; 37 °C)?
The kon was 44.3 10^6 M^–1 min^–1.

What about the “τ (receptor residence time)” value (hCB2R [3]; 37 °C) of the same compound?
The value was 20.2 min.

And the Kd (hCB2R [3]; 37 °C)?
Its Kd is 1.12 nM.

What about the “ΔG (Experimental)” value (hCB2R [3]; ΔG exp = RT ln(Kd), T = 310 K, from experimental Kd values) of the same compound?
The value was “–12.7 kcal mol-1”.

What about the “β-arrestin recruitment (BRET signal)” value (hCB2R [4]) of the same compound?
Its value is “Baseline BRET signal was retained”.

And the Kd (hCB2R [5])?
The Kd was 2.1 nM.

`COc1cc(C(C)(C)C(CCCCCN=[N+]=[N-])c2ccccc2)cc(OC)c1C1C=C(CN)C2CC1C2(C)C` [(R)-1] was tested. Which EC50 (hCB2R [1]) did it give?
The EC50 was 112 nM.

And the “Emax (cAMP)” value (hCB2R [1]; [7])?
The value was “–44%”.

What about the EC50 (hCB2R [2]) of the same compound?
Its EC50 is 158 nM.

What about the koff (hCB2R [3]; 37 °C) of the same compound?
Its koff is 13.9 10^–2 min^–1.

And the kon (hCB2R [3]; 37 °C)?
The kon was 12.0 10^6 M^–1 min^–1.

And the “τ (receptor residence time)” value (hCB2R [3]; 37 °C)?
Its value is 7.19 min.

What about the Kd (hCB2R [3]; 37 °C) of the same compound?
The Kd was 11.6 nM.

What about the “β-arrestin recruitment (BRET signal)” value (hCB2R [4]) of the same compound?
Its value is “Baseline BRET signal was retained”.

And the Kd (hCB2R [5])?
The Kd was 39.1 nM.

And the “fold greater binding affinity for CB2R in comparison to (S)-1” value (hCB2R [5]; ratio of Kd values)?
The value was 12 fold.

`CCCCCCC(C)(C)c1cc(OC)c([C@@H]2C=C(CO)[C@@H]3C[C@H]2C3(C)C)c(OC)c1` [HU-308, reference compound] was tested. Which “intracellular Ca2+ (Fluo-4AM fluorescence)” value (rat CB2R) did it give?
Its value is “triggered a robust fluorescence spike”.

Which “dissociation rate of fluorescent tracer” value (hCB2R [3]; tracer of competition-association assay, value fixed in fitting, 37 °C) does the source give for RO7568997 [reference compound] here?
The value was 1.13 min⁻¹.

Which EC50 (hCB2R [1]) does the source give for `COc1cc(C(C)(C)C(CCCCCN=[N+]=[N-])c2ccccc2)cc(OC)c1C1C=C(CN)C2CC1C2(C)C` [(S)-1] here?
The EC50 was 2690 nM.

What about the Emax (hCB2R [1]; [7]) of the same compound?
Its Emax is -44%.

What about the “fold increased potency of G protein recruitment over adenylyl cyclase inhibition” value (hCB2R [2]; Gi-CASE pEC50 versus cAMP pEC50) of the same compound?
Its value is 14 fold.

What about the EC50 (hCB2R [2]) of the same compound?
Its EC50 is 191 nM.

And the koff (hCB2R [3]; 37 °C)?
Its koff is 115 10^–2 min^–1.

And the kon (hCB2R [3]; 37 °C)?
The kon was 157000 M⁻¹ s⁻¹.

What about the “τ (receptor residence time)” value (hCB2R [3]; 37 °C) of the same compound?
Its value is 0.87 min.

What about the Kd (hCB2R [3]; 37 °C) of the same compound?
Its Kd is 122 nM.

And the “β-arrestin recruitment (BRET signal)” value (hCB2R [4])?
The value was “Baseline BRET signal was retained”.

And the Kd (hCB2R [5])?
Its Kd is 476 nM.

With `CCCC(C)(C)c1ccc2c(c1)OC(C)(C)[C@@H]1CC=C(C)C[C@@H]21` [JWH133] as the compound, how does the ERK1/2 phosphorylation level ([6]; CB2R expression induced with DOX (1 μg/mL)) read?
The ERK1/2 phosphorylation level was “effectively stimulated ERK1/2 phosphorylation”.

And the ERK1/2 phosphorylation level ([6]; absence of CB2R expression inducer (DOX))?
Its ERK1/2 phosphorylation level is “remained the same”.

From PMC11117691, “Flipping the GPCR Switch: Structure-Based Development of Selective Cannabinoid Receptor 2 Inverse Agonists” (ACS Central Science, 2024)
